Assay results taken from patent publication US12139481B2, “Compositions comprising macrocycle derivatives incorporating bridged macrocycles and methods of producing and using same” (Southwestern Oklahoma State University, priority 2015, dated 2024).
Read-outs that look alike come from different tables or passages of the source.

Experiments:
C. krusei ATCC 6258 = assay: Antifungal broth dilution assay against C. krusei (modified CLSI); type: cell-based, Candida krusei
Experimental: General Experimental Procedures. All organisms were obtained from the American Type Culture Collection (Manassas, VA) and include the fungi Candida albicans ATCC 90028, C. glabrata ATCC 90030, C. krusei ATCC 6258, and Cryptococcus neoformans ATCC 90113, and the bacteria Staphylococcus aureus ATCC 29213 and methicillin-resistant S. aureus ATCC 33591 (MRS). All organisms were tested using modified versions of the CLSI (formerly NCCLS) methods. For all organisms, optical density was used to monitor growth (NCCLS, Reference Method for Broth Dilution Antifungal Susceptibility Testing of Yeasts; Approved Standard M27-A2. National Committee on Clinical Laboratory Standards, 2002 22 (15); and NCCLS, Methods for Dilution Antimicrobial Susceptibility Tests for Bacteria that Grow Aerobically; Approved Standard, Seventh Edition M7-A7. National Committee on Clinical Laboratory Standards, 2006. 26(2)).
Samples (dissolved in DMSO) were serially-diluted in 20% DMSO/saline and transferred (10 μL) in duplicate to 96 well flat bottom microplates. Inocula were prepared by correcting the OD630 of microbe suspensions in incubation broth [RPMI 1640/0.2% dextrose/0.03% glutamine/MOPS @ pH 6.0 (Cellgro) for Candida spp., Sabouraud Dextrose for C. neoformans, and cation-adjusted Mueller-Hinton (Difco) @ pH 7.3 for Staphylococcus spp. to afford an assay volume of […] and final target inocula of: Candida spp. and C. neoformans: 1.5×10^3, and Staphylococcus spp.: 5.0×10^5 CFU/ml. Final sample test concentrations were 1/100th the DMSO stock concentration. […] All organisms were read at either 530 nm using the Biotek Powerwave XS plate reader (Bio-Tek Instruments, Vermont) prior to and after incubation: Candida spp. at 35° C. for 46-50 h, Staphylococcus spp. at 35° C. for 16-20 h, and C. neoformans at 35° C. for 70-74 h. IC50s (concentrations that afford 50% inhibition relative to controls) were calculated using XLfit 4.2 software (IDBS, Alameda, CA) using fit model 201. The MIC is defined as the lowest test concentration that allows no detectable growth. Minimum fungicidal or bactericidal concentrations were determined by removing 5 μl from each clear (or blue) well, transferring to fresh media, and incubating as previously mentioned. The MFC/MBC is defined as the lowest test concentration that kills the organism (allows no growth).
Primary Analysis. Samples were tested in duplicate at one test concentration (50 μg/mL), and percent inhibitions were calculated relative to blank and growth controls. Samples showing 50% inhibition in at least one test organism were selected for dose response (Secondary) studies.
Secondary Analysis. Extracts from the Primary Assay, and first-run pure compounds and column fractions were tested in duplicate at 3 test concentrations (5-fold dilutions). Samples dissolved to 20 mg/mL in DMSO were tested at 200, 40, and 8 μg/mL. Samples dissolved to 2 mg/mL in DMSO were tested at 20, 4, and 0.8 μg/mL.

[1] = test system: Cryptococcus neoformans ATCC 90113; assay: Antimicrobial microdilution assay against Cryptococcus neoformans (modified CLSI/NCCLS, optical density); type: cell-based; settings: for X more potent than Amphotericin B: C. neoformans, ratio of molar IC50 to Amphotericin B; for C. neoformans IC50 / IC50: in vitro, C. neoformans ATCC 90113; for IC50: read-out: C. neoformans IC50 (mol/L)
In short: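 Broth microdilution (modified CLSI) in RPMI pH 6.0, samples serially diluted in 20% DMSO/saline and tested in duplicate, growth followed by OD630 before and after incubation. MFC is the lowest concentration giving no growth when 5 μL from clear wells is plated on agar.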

[2] = test system: L. donovani promastigotes; assay: Antileishmanial Alamar Blue assay on promastigotes; type: cell-based, Leishmania donovani; settings: for X more potent than Pentamidine: L. donovani, ratio of molar IC50 to Pentamidine; for L. donovani IC50 / IC50: promastigotes, 48 hours, Alamar Blue; for IC50: read-out: L. donavani IC50
Experimental: Methods: The compounds were screened in vitro against the promastigote forms of the leishmania parasites employing the Alamar Blue assay as discussed below.
Antileishmanial activity of the compounds was tested in vitro against a culture of L. donovani promastigotes, grown in RPMI 1640 medium supplemented with 10% fetal calf serum (FCS, Gibco Chem. Co., Grand Island, NY) at 26° C. A 3-day-old culture was diluted to 5×10^5 promastigotes/mL. Drug dilutions (50-3.1 μg/mL) were prepared directly in cell suspension in 96-well plates. Plates were incubated at 26° C. for 48 hours, and growth of leishmania promastigotes was determined by Alamar Blue assay. Standard fluorescence was measured on a FLUOstar® Galaxy plate reader (BMG Lab Technologies, Ortenberg, Germany) at an excitation wavelength of 544 nm and emission wavelength of 590 nm. Pentamidine and amphotericin B were used as the standard antileishmanial agents. Percent growth was calculated and plotted versus test concentration for computing the IC50 values.

[3] = test system: Plasmodium falciparum W2 clone (Indochina, chloroquine-resistant); assay: In vitro antimalarial assay, chloroquine-resistant W2 clone; type: cell-based; settings: for X more potent than chloroquine: molar IC50 ratio versus chloroquine
Experimental: (§1) The compounds were assayed for in vitro antimalarial activity against the W2 clone and D6 clone of the pathogenic Plasmodium falciparum. The strains of P. falciparum were obtained from the Division of Experimental Therapeutics, Walter Reed Army Institute of Research, Washington D.C. Strains of Sierra Leon D6 and Indochina W2 are chloroquine-sensitive and chloroquine-resistant, respectively. The parasite was grown in type A human RBCs and, two strains subcultured daily with fresh medium and blood cells. On the day of the assay, a suspension of infected blood cells (2% parasitemia and 2% hematocrit) was prepared using type A human red blood cells. Assays were performed by standard 96-well flat-bottomed microplate methods and done in duplicate at different concentrations. IC50 values were obtained from the dose curves. Artemisinin and chloroquine were included in each assay as the drug controls, and DMSO was used as vehicle control. The whole protocol was developed based on the published method of Makler. The cytotoxicity assays were also performed in parallel against the Vero cells, and the selectivity index was measured. A selectivity index of >9 was considered to indicate a lead for further development of antimalarial drug.

[4] = test system: Plasmodium falciparum D6 clone (Sierra Leon, chloroquine-sensitive); assay: In vitro antimalarial assay, chloroquine-sensitive D6 clone; type: cell-based; settings: for X more potent than chloroquine: molar IC50 ratio versus chloroquine
Experimental: as §1

[5] = W2 clone, converted with molecular weight, read-out: P. falciparum W2 IC50
[6] = D6 clone, converted with molecular weight, read-out: P. falciparum D6 IC50

Row | Molecule | X more potent than Amphotericin B (C. krusei ATCC 6258; C. krusei, ratio of molar IC50 to amphotericin B) | C. krusei IC50 (C. krusei ATCC 6258; in vitro) | IC50 (C. krusei ATCC 6258; in vitro, read-out: C. krusei IC50 (mol/L)) | X more potent than Amphotericin B [1] | C. neoformans IC50 [1] | IC50 [1] | X more potent than Pentamidine [2] | L. donovani IC50 [2] | IC50 [2] | P. falciparum W2 IC50 ([3]; W2 clone) | IC50 [3, 5] | X more potent than chloroquine ([3]; W2 clone) | P. falciparum D6 IC50 ([4]; D6 clone) | IC50 [4, 6] | X more potent than chloroquine ([4]; D6 clone) | times more potent than chloroquine ([3]; chloroquine-resistant P. falciparum (W2 strain)) | IC50 ([3]; Plasmodium falciparum, W2, read-out: P. falciparum W2 IC50 (mol/L)) | IC50 ([3]; Plasmodium falciparum, W2, read-out: P. falciparum W2 IC50 (μg/mL)) | IC50 ([4]; Plasmodium falciparum, D6, read-out: P. falciparum D6 IC50 (mol/L)) | IC50 ([4]; Plasmodium falciparum, D6, read-out: P. falciparum D6 IC50 (μg/mL))
1 | CN1CCN2CCN(CC1)CCN(Cc1nc3ccccc3n1Cc1ccc([N+](=O)[O-])cc1)CC2 [SJA230, CB-BINO2-cyclen] | 0.09 | 7.690 µg/mL | 16100 nM | 0.01 | 7.930 µg/mL | 16600 nM |  |  |  |  |  |  |  |  |  |  |  |  |  | 
2 | m-CB-homocyclens HCl salt [OB65B] |  |  |  | 1.47 | 0.160 µg/mL | 162 nM | 0.48 | 11.08 µg/mL | 11200 nM | 0.3783 µg/mL | 382 nM | 1.78 | 0.2921 µg/mL | 295 nM | 0.12 |  |  |  |  | 
3 | Clc1ccc2c(N3CCCNCCCNCCNCCC3)ccnc2c1 [K-JDD-0011-P36] |  |  |  |  |  |  |  |  |  | 0.5279 µg/mL | 1400 nM | 0.48 | 0.0203 µg/mL | 54 nM | 0.68 |  |  |  |  | 
4 | p-CB-cyclens HCl salt [OB15B] |  |  |  | 0.34 | 0.610 µg/mL | 699 nM | 0.22 | 20.94 µg/mL | 24000 nM | 0.6558 µg/mL | 1240 nM | 0.54 | 0.5799 µg/mL | 1100 nM | 0.03 |  |  |  |  | 
5 | Clc1ccc2c(N3CCNCCN(c4ccnc5cc(Cl)ccc45)CCNCC3)ccnc2c1.O.O.[Fe+3].[O-][Cl+3]([O-])([O-])[O-].[O-][Cl+3]([O-])([O-])[O-].[O-][Cl+3]([O-])([O-])[O-] [K-PAA-0016-P36, Fe-complex-4,10-bis(7-chloroquinoline)cyclen)Cl2] |  |  |  | 0.22 | 0.940 µg/mL | 1060 nM |  |  |  | 0.0336 µg/mL | 37.9 nM | 17.88 | 0.0196 µg/mL | 22.1 nM | 1.65 | ~18 |  |  |  | 
6 | p-CB-homocyclens HCl salt [TA22C] |  |  |  | 0.71 | 0.310 µg/mL | 334 nM | 0.30 | 16.31 µg/mL | 17600 nM | 0.3189 µg/mL | 379 nM | 1.79 | 0.2596 µg/mL | 308 nM | 0.12 |  |  |  |  | 
7 | CC(=O)[O-].F[P-](F)(F)(F)(F)F.O.[Ni+2].c1ccc(CN2CCCNCCN(Cc3ccccc3)CCCNCC2)cc1 [BME06, [Ni(Bn2Cyclam)(OAc)]PF6•H2O] |  |  |  | 0.01 | 17.990 µg/mL | 27200 nM | 0.13 | 26.25 µg/mL | 39700 nM | 1.7132 µg/mL | 2590 nM | 0.26 | 0.7495 µg/mL | 1130 nM | 0.03 |  |  |  |  | 
8 | CCN(CC)CCCC(C)Nc1ccnc2cc(Cl)ccc12 (stereo not shown) [CQ] |  |  |  |  |  |  |  |  |  |  |  | 1.00 |  |  | 1.00 |  | 678 nM | 0.217 µg/mL | 36.6 nM | 0.0117 µg/mL
9 | Clc1ccc2c(N3CCNCCN(c4ccnc5cc(Cl)ccc45)CCNCC3)ccnc2c1.[Cl-].[Cl-].[Mn+2] [K-PAA2-0004-P8] |  |  |  |  |  |  |  |  |  | 0.0875 µg/mL | 141 nM | 4.82 | 0.0750 µg/mL | 120 nM | 0.30 |  |  |  |  | 
10 | CN1CCN(c2ccnc3cc(Cl)ccc23)CCN(C)CCN(c2ccnc3cc(Cl)ccc23)CC1 [K-PAA-0012-P28] |  |  |  |  |  |  |  |  |  | 0.1992 µg/mL | 380 nM | 1.78 | 0.1169 µg/mL | 223 nM | 0.16 |  |  |  |  | 
